Series [1] relates to SCK cells subcutaneously transplanted. In words: Cancer growth in mouse xenograft model. As to conditions: Example 3, FIG. 2, A10-A3 10 mg/kg three times per week, cisplatin 3 mg/kg twice per week. Type of series: in vivo, Nude mice Balb/c nu/nu. On the procedure:
Nude mice Balb/c nu/nu were purchased via Central Lab. Animal Inc. from Japan SLC. The mice were 6 to 8 weeks old, weighed 18 to 22 g and acclimated for one week in a lab of the Korean Research Institute of Bioscience and Biotechnology. SCK cells (3×10^7) were subcutaneously transplanted into 40 mice, and were randomly divided into four groups when grown to a tumor mass having a size of 100 to 200 mm^3 after one week. A10-A3 was administered to the mice at a dose of 10 mg/kg three times per week. Cisplatin was administered to the mice at a dose of 3 mg/kg twice per week. As the control group, mIgG was administered at the same level, instead of A10-A3 and saline was administered at the same level, instead of cisplatin. The weight of nude mice and tumors were measured three times per week.

Series [2] deals with L1CAM protein in cholangiocarcinoma cell lines (SCK). In words: Detection of protein expression of L1CAM using Western blotting. As to conditions: SCK transduced with siRNA, cultured 72 hours; compared to siRNA non-specific for L1CAM; FIG. 5(A) lower. It is filed as cell-based. On the procedure: In order to knock down expression of L1CAM in cholangiocarcinoma cell lines (SCK), the cells were transduced with siRNA (5′-[…]-3′, Sequence ID No. 1) specific for L1CAM and siRNA (5′-CAGTCGCGTTTGCGACTGG-3′, Sequence ID No. 2) non-specific for L1CAM and then cultured for 72 hours and expression of L1CAM was detected in protein level using Western blotting. In order to isolate the total protein of cell lines treated with siRNA, the cell lines were treated with 500 μl of cell lysis solution (RIPA buffer), and the proteins thus obtained were isolated in 10% SDS-PAGE, transferred to a nitrocellulose membrane and subjected to Western blotting. The nitrocellulose membrane was allowed to react in PBST (PBS+0.1% Tween 20) buffer containing 5% skim milk for one hour and washed two or more times with the PBST buffer. Anti-L1CAM antibody (A10-A3) was added as a primary antibody to the reacted nitrocellulose membrane, followed by allowing to react for 2 hours. The resulting membrane was washed with the PBST buffer five times and reacted with anti-mouse IgG HRP (horseradish peroxidase) conjugate (1:5000 Sigma) for one hour. The reaction solution was washed five times with the PBST buffer and was colored with enhanced chemiluminescence reagent (ECL) (Amersham biosciences) as a detection reagent.

For series [3], the system named is L1CAM mRNA in cholangiocarcinoma cell lines (SCK). In words: Detection of mRNA expression of L1CAM by RT-PCR. Type of series: cell-based. The conditions noted are these: SCK transduced with siRNA, cultured 72 hours; compared to siRNA non-specific for L1CAM; FIG. 5(A) upper. On the procedure: In order to knock down expression of L1CAM in cholangiocarcinoma cell lines (SCK), the cells were transduced with siRNA (5′-[…]-3′, Sequence ID No. 1) specific for L1CAM and siRNA (5′-CAGTCGCGTTTGCGACTGG-3′, Sequence ID No. 2) non-specific for L1CAM and then cultured for 72 hours. In order to isolate the total RNA of the cultured cholangiocarcinoma cells, the cells were treated with a 1 ml trizol reagent (Invitrogen, Inc.) at room temperature for 5 minutes. 0.2 ml of chloroform was added to the cells, and the mixture was violently shaken about 15 times and allowed to react at room temperature for 3 minutes. The resulting solution was centrifuged at 4° C. and 14,000 rpm for […], 400 μl of the supernatant was transferred to another tube and the same amount of isopropanol was added to the residue and the mixture was allowed to react at room temperature for 10 minutes. The reaction solution was centrifuged at 4° C. at 14,000 rpm for 15 minutes, the supernatant was discarded, and the residue was washed with 75% ethanol. oligo(d)T, dNTP, RNase inhibitor and reverse transcriptase were added to 2 ug of the RNA thus extracted and the mixture was allowed to react at 42° C. for one hour to synthesize cDNA. […]

For the compound `N.N.[Cl][Pt][Cl]` [cisplatin], the “proliferation inhibition (tumor growth)” value in series [1] is “about 30%”.
On to “siRNA specific for L1CAM: siRNA (5′-GCCAATGCCTACATCTACGTT-3′, Sequence ID No. 1) specific for L1CAM (listed as DNA, chemistry not given here)”, for which the “total amount of protein expressed (L1CAM)” value in series [2] is on record as “decrease”. For the same compound, the “total amount of L1CAM expressed (mRNA)” value in series [3] is “decrease”.

Values taken from patent US20110293600A1, “Anticancer Composition Comprising Antitumor Agent and Substance Having Inhibitory Effects on L1CAM Activity and Expression” (KOREA RESEARCH INSTITUTE OF BIOSCIENCE AND BIOTECHNOLOGY, priority 2008, published 2011).
